Test results from ChEMBL document CHEMBL1909046, “DrugMatrix in vitro pharmacology data”.
pIC50, pKi: −log10 of the molar value.

Tests used:
[1] = target: T1, Substance-K receptor (Homo sapiens, UniProt P21452); format: cell membranes, CHO, Membrane; further: in other assays of this panel Not Active means under 50% inhibition at 10 µM
T1 sequence (P21452 whole entry): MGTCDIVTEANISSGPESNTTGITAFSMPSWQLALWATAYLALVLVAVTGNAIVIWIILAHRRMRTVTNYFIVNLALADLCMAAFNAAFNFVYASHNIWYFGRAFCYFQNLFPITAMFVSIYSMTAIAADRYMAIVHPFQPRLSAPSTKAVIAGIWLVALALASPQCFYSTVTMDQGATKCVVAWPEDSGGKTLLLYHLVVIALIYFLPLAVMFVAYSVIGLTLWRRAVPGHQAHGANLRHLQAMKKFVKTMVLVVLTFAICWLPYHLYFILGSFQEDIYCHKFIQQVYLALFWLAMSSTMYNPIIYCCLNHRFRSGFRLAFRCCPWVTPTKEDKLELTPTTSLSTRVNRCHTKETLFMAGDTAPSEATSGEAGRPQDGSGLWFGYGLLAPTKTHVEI

[2] = DRUGMATRIX: Glutamate, NMDA, Phencyclidine radioligand binding (ligand: [3H] TCP); format: cell membranes, Rattus norvegicus, Wistar, Cerebral cortex, Membrane; conditions: Not Active = under 50% inhibition at 10 µM
[3] = target: T2, Amine oxidase [flavin-containing] A (Homo sapiens, UniProt P21397); test: DRUGMATRIX: Monoamine Oxidase MAO-A enzyme inhibition (substrate: Kynuramine); set-up: species or system BTI-TN-5B1-4; conditions: Not Active = under 50% inhibition at 10 µM
T2 sequence (P21397 whole entry): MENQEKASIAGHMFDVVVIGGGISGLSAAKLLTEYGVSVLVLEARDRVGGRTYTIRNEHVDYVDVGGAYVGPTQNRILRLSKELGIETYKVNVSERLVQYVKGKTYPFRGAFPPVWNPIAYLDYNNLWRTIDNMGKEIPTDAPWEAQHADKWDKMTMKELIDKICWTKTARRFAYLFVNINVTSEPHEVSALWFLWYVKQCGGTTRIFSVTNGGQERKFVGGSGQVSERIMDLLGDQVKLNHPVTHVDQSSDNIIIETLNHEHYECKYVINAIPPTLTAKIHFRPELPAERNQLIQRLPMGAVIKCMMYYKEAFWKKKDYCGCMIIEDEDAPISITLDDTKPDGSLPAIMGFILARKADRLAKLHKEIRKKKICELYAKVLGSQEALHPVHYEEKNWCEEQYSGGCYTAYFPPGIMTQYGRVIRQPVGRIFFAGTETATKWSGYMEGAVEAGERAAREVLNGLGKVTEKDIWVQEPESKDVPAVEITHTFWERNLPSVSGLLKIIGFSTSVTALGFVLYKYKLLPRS

[4] = target: T3, Muscarinic acetylcholine receptor M4 (Homo sapiens, UniProt P08173); format: cell membranes, CHO-K1, Membrane; conditions: cho-k1; further: in other assays of this panel Not Active means under 50% inhibition at 10 µM
T3 sequence (P08173 whole entry): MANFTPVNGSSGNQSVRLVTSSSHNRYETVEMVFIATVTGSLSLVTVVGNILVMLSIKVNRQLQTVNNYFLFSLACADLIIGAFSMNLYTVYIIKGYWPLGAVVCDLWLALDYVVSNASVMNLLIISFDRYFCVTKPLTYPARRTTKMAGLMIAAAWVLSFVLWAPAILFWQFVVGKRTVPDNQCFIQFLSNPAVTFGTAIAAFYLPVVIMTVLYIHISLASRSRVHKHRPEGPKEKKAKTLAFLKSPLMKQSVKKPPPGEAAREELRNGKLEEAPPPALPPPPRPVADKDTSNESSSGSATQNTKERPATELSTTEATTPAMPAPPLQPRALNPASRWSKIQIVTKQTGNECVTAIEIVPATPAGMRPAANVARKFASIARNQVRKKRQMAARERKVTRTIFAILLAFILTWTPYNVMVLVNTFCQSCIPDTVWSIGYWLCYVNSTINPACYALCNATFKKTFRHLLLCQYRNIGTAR

[5] = target: T4, Neutrophil elastase (Homo sapiens, UniProt P08246); format: tissue-based;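 further: inhibition of neutrophil elastase enzyme activity, measured with a p-nitroanilide-linked peptide substrate; in other assays of this panel Not Active means under 50% inhibition at 10 µM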
T4 sequence (P08246 whole entry): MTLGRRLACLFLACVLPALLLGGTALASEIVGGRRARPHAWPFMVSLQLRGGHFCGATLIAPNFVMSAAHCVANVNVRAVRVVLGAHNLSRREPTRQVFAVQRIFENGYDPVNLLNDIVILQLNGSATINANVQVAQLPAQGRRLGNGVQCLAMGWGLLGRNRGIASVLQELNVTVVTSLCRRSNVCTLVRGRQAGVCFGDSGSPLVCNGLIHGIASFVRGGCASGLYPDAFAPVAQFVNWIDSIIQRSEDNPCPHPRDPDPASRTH

[6] = target: Acetylcholinesterase (Homo sapiens, UniProt P22303); test: DRUGMATRIX: Acetylcholinesterase enzyme inhibition (substrate: acetylthiocholine); format: cell-based, HEK293; conditions: hek293; Not Active = under 50% inhibition at 10 µM
Acetylcholinesterase, sequence (P22303 whole entry): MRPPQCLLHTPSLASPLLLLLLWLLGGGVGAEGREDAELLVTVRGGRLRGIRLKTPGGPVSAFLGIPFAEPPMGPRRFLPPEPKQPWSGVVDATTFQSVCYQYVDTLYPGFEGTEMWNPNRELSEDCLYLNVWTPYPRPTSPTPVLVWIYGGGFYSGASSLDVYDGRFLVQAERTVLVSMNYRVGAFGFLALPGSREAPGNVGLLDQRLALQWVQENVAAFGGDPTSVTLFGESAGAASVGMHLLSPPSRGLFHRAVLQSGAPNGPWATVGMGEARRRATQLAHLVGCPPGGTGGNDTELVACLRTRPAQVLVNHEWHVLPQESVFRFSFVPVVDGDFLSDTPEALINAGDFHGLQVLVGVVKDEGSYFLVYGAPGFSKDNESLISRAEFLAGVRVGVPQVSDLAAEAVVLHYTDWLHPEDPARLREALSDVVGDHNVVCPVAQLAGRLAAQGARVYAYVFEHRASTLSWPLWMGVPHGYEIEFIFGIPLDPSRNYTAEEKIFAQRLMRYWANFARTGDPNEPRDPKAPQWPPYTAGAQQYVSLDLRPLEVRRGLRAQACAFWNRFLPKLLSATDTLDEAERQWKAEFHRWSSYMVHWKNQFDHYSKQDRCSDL

Compound	IC50 ([1]; cho)	IC50 [2]	Ki [2]	IC50 ([3]; bti-tn-5b1-4)	IC50 [4]	IC50 [5]	IC50 [6]	pIC50 ([1]; read-out: IC50)	pKi ([1]; read-out: Ki)	Ki ([1]; cho)	Ki ([3]; bti-tn-5b1-4)	Ki [4]	Ki [5]	Ki [6]	pIC50 ([3]; read-out: IC50)
OCCN(CCO)c1nc(N2CCCCC2)c2nc(N(CCO)CCO)nc(N3CCCCC3)c2n1 [DIPYRIDAMOLE]	Not Active	Not Active	Not Active	Not Active	Not Active	Not Active	Not Active	–	–	–	–	–	–	–	–
CC(C)(C)NC(=O)[C@@H]1C[C@@H]2CCCC[C@@H]2CN1C[C@@H](O)[C@H](Cc1ccccc1)NC(=O)[C@H](CC(N)=O)NC(=O)c1ccc2ccccc2n1	–	Not Active	Not Active	Not Active	Not Active	Not Active	Not Active	5.21	5.68	–	–	–	–	–	–
Nc1nc2nc[nH]c2c(=S)[nH]1 [THIOGUANINE]	Not Active	Not Active	Not Active	Not Active	Not Active	Not Active	Not Active	–	–	–	–	–	–	–	–
SODIUM NITROPRUSSIDE	Not Active	Not Active	Not Active	Not Active	Not Active	Not Active	Not Active	–	–	Not Active	Not Active	Not Active	Not Active	Not Active	–
Cn1ccnc1S [METHIMAZOLE]	Not Active	Not Active	Not Active	Not Active	Not Active	Not Active	Not Active	–	–	–	–	–	–	–	–
Cc1oncc1C(=O)Nc1ccc(C(F)(F)F)cc1 [LEFLUNOMIDE]	Not Active	Not Active	Not Active	–	Not Active	Not Active	Not Active	–	–	–	–	–	–	–	4.68
COc1c(C)c2c(c(O)c1C/C=C(\C)CCC(=O)O)C(=O)OC2 [MYCOPHENOLIC ACID]	Not Active	Not Active	Not Active	Not Active	Not Active	Not Active	Not Active	–	–	–	–	–	–	–	–
CCCOc1ccccc1-c1nc2nn[nH]c2c(=O)[nH]1 [ZAPRINAST]	Not Active	Not Active	Not Active	Not Active	Not Active	Not Active	Not Active	–	–	–	–	–	–	–	–
C=CCC1(C(C)CCC)C(=O)NC(=O)NC1=O (stereo not drawn) [SECOBARBITAL]	Not Active	Not Active	Not Active	Not Active	Not Active	Not Active	Not Active	–	–	–	–	–	–	–	–
CC(=O)[C@@]1(O)CC[C@H]2[C@@H]3C[C@H](C)C4=CC(=O)CC[C@]4(C)[C@H]3CC[C@@]21C	Not Active	Not Active	Not Active	Not Active	Not Active	Not Active	Not Active	–	–	–	–	–	–	–	–
N#CC(C#N)=Cc1ccc(O)c(O)c1 [TYRPHOSTIN 23]	Not Active	Not Active	Not Active	Not Active	Not Active	Not Active	Not Active	–	–	–	–	–	–	–	–
